Structures are written as SMILES.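 Each compound was tested at five concentrations against cells in 96-well plates for 48 hours. Here, GI50 denotes the concentration required for 50% inhibition of growth.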 The source made the active and inactive calls. Cut-off read from the data, not from the text of the source: active = GI50 up to about 1.1 µM and inactive = higher. A value given as a limit tells only on which side of the number the result lay.

This note sets out measurements from ChEMBL document CHEMBL1201862, “PubChem BioAssay data set” (2004).

What all share (assay): NCI-60 cell line screen, 48 h
Assay [1] concerns HCT-116.
Assay [2] deals with M14.
The subject of assay [3] is BT-549.
Assay [4] relates to K562.
The subject of assay [5] is UACC-257.
In assay [6] the test system is DU-145.
Assay [7] deals with EKVX.
In assay [8] the test system is SN12C.
Assay [9] has as its system T47D.
The subject of assay [10] is A498.
Assay [11] has as its system SF-539.
The test system of assay [12] is UO-31.
The subject of assay [13] is NCI-H226.
Assay [14] deals with 786-0.
In assay [15] the test system is OVCAR-3.
The subject of assay [16] is ACHN.
Assay [17] concerns OVCAR-5.
For assay [18], the system named is SK-MEL-28.
The test system of assay [19] is CAKI-1.
Assay [20] relates to PC-3.

Turning to `CC1=NN(c2nc(N)nc(/C(C#N)=C/c3ccccc3O)n2)C(C)(C)C1`, the GI50 in assay [1] is 18.3 µM (inactive); in assay [2], 20.8 µM (inactive); in assay [3] it was 36.2 µM (inactive); in assay [4], 51.5 µM (inactive); in assay [5], 18.9 µM (inactive); in assay [6] it was 15.4 µM (inactive). Besides, the GI50 in [7] is 16 µM (inactive); in [8], 25.5 µM (inactive); in [9] it was 15.7 µM (inactive); in assay [10], 24.7 µM (inactive); in assay [11], 16.9 µM (inactive); in assay [12], 18.8 µM (inactive). The GI50 in assay [13] was 17.3 µM (inactive); in assay [14], 15.7 µM (inactive); in assay [15] it was 14.7 µM (inactive); in assay [16] it was 18.5 µM (inactive); in assay [17], 15.4 µM (inactive); in [18], 16.7 µM (inactive). In addition, the GI50 in assay [19] is 19.6 µM (inactive); in assay [20], 16 µM (inactive).

On to `CC(=O)N1NC(c2ccccc2)=NC(=O)C1c1cc(C)c(O)c(C)c1` (stereo not given), for which the GI50 was 21.2 µM (inactive) in assay [1]; 71.9 µM (inactive) in assay [2]; 23 µM (inactive) in assay [3]; > 100 µM (inactive) in assay [4]; 31.2 µM (inactive) in [5]; 22.7 µM (inactive) in [6]. Further, the GI50 in assay [7] is 34 µM (inactive); in [8], 27.5 µM (inactive); in [9], 22.4 µM (inactive); in [10], 28.3 µM (inactive); in [11] it was 20.4 µM (inactive); in assay [12], 21.7 µM (inactive). Further, the GI50 in assay [13] is 23.9 µM (inactive); in assay [14] it was 17.3 µM (inactive); in assay [15] it was 19.2 µM (inactive); in assay [16], 20.7 µM (inactive); in assay [17], 36.2 µM (inactive); in [18] it was 54.6 µM (inactive). For the same molecule, the GI50 in assay [19] is > 100 µM (inactive); in assay [20], 27.8 µM (inactive).

Turning to `CC(C)(C)OC(=O)NCC(CNC(=O)OC(C)(C)C)C(N)=O`, the GI50 in assay [1], in assay [2], in assay [3], in [4], in assay [5] and in [6] was > 100 µM (inactive) in each case. Further, the GI50 in [7], in [8], in assay [9], in assay [10], in assay [11] and in [12] was > 100 µM (inactive) in each case. Also, the GI50 in assay [13], in assay [14], in assay [15], in assay [16], in assay [17] and in assay [18] was > 100 µM (inactive) in each case. The GI50 in [19] and in [20] was > 100 µM (inactive) in each case.

Turning to `CC(C)(O)C1CC(=O)C(C)(C2C(O)CC3(C)C4CC=C5C(CCC(O)C5(C)C)C4(C)C(=O)CC23C)O1` (stereo not given), the GI50 in assay [1], in assay [2], in [3], in assay [4], in [5] and in assay [6] was > 100 µM (inactive) throughout. Also, the GI50 in assay [7], in assay [8], in assay [9], in assay [10], in assay [11] and in [12] was > 100 µM (inactive) in each case. The GI50 in assay [13], in [14], in [15], in assay [16], in assay [17] and in [18] was > 100 µM (inactive) in each case. Also, the GI50 in assay [19] and in assay [20] was > 100 µM (inactive) each time.

`COc1ccc(C(=O)Nc2ccc(O)c(=O)cc2)cc1`: the GI50 in [1] is 33.1 µM (inactive); in assay [2], 78 µM (inactive); in [3], 38.5 µM (inactive); in assay [4], 32.4 µM (inactive); in [5] it was 40.6 µM (inactive); in assay [6], 25.6 µM (inactive). For the same molecule, the GI50 in assay [7] was 21.4 µM (inactive); in assay [8], 36.5 µM (inactive); in assay [9], < 0.01 µM (active); in [10], < 0.01 µM (active); in assay [11], 33.2 µM (inactive); in assay [12], 20.9 µM (inactive). Further, the GI50 in [13] was > 100 µM (inactive); in assay [14], 51.1 µM (inactive); in assay [15] it was 27.6 µM (inactive); in assay [16], 23.7 µM (inactive); in assay [17], > 100 µM (inactive); in assay [18], 22.5 µM (inactive). The results for the GI50 in assay [19] and in assay [20] were 36.9 µM (inactive) and 40 µM (inactive), respectively.

As for `CC(=O)NC1=C(C)C(=O)c2c(nc3n2CCC3OC(=O)c2ccccc2)C1=N` (stereo not given), the GI50 in assay [1] is 3.15 µM (inactive); in assay [2] it was 1.01 µM (active); in assay [3], 0.689 µM (active); in [4], 1.79 µM (inactive); in assay [5] it was 1.24 µM (inactive); in assay [6], 1.97 µM (inactive). The GI50 is 2.55 µM (inactive) in assay [7]; 1.72 µM (inactive) in assay [8]; 1.85 µM (inactive) in [9]; 1.96 µM (inactive) in assay [10]; 1.25 µM (inactive) in assay [11]; 2.04 µM (inactive) in assay [12]. In addition, the GI50 was 4.24 µM (inactive) in [13]; 1.93 µM (inactive) in assay [14]; 0.552 µM (active) in [15]; 1.71 µM (inactive) in [16]; 2.98 µM (inactive) in assay [17]; 1.8 µM (inactive) in [18]. For the same molecule, the GI50 in assay [19] was 1.84 µM (inactive); in assay [20], 1.32 µM (inactive).

Turning to `CC1(C)SC2C(NC(=O)C(C(=O)O)c3ccccc3)C(=O)N2C1C(=O)O` (stereo not given), the GI50 in assay [1], in assay [2], in assay [3], in [4], in [5] and in [6] was > 100 µM (inactive) throughout. In addition, the GI50 in assay [7], in assay [8], in assay [9], in assay [10], in assay [11] and in assay [12] was > 100 µM (inactive) in each case. Also, the GI50 in [13], in [14], in assay [15], in assay [16], in [17] and in assay [18] was > 100 µM (inactive) throughout. In addition, the GI50 in assay [19] and in assay [20] was > 100 µM (inactive) in each case.

For `CN(C)c1ccc(C=c2c3ccccc3n3c2cc(-c2ccc(Cl)cc2)[n+]3C)cc1`, the GI50 in assay [1] is 0.0653 µM (active); in assay [2], 0.301 µM (active); in assay [3], 0.201 µM (active); in assay [4] it was < 0.0462 µM (active); in [5], 0.158 µM (active); in [6], 0.177 µM (active). For the same molecule, the GI50 in assay [7] is 0.617 µM (active); in assay [8] it was 0.254 µM (active); in assay [9], 0.133 µM (active); in assay [10] it was 1.51 µM (inactive); in assay [11], 0.228 µM (active); in assay [12], 0.904 µM (active). Besides, the GI50 in assay [13] is 0.573 µM (active); in assay [14], 0.267 µM (active); in assay [15], 0.295 µM (active); in assay [16] it was 0.514 µM (active); in [17], 1.04 µM (active); in assay [18], 0.519 µM (active). Further, the GI50 in assay [19] is 0.259 µM (active); in [20] it was 0.167 µM (active).
